In one assay the target is T1, human KOPr (Homo sapiens, UniProt P41145).
T1 construct: expressed in transfected cells; HEK293-Glo20F cells (cAMP)
Description: biochemical. The conditions noted are these: [3H]-diprenorphine. It is filed as binding.

Assay [1] concerns the target T2, human NOPr (Homo sapiens, UniProt P41146).
T2 construct: expressed in transfected cells
Description: Radioligand competition binding with [3H]-nociceptin. Background: Loss of bound radioactivity is the signal in a displacement assay; it reports binding, not function.

Assay [2] addresses T2, human NOPr. Briefly: Glo-sensor cAMP assay. It is filed as cell-based. How it is done: Stimulation by endogenous RF-amide peptides or test compounds for [^35S]-GTPγS binding to membranes from CHO cells expressing human NPFF1R or NPFF2R, were examined as reported. 1.6. Glo-Sensor cAMP Assay cAMP accumulation assay was essentially done as described with the following modifications: HEK293 cells stably expressing cAMP Glosensor-20F were used, with or without additional stable expression of each individual opioid receptor or NPFF1R. The cAMP responses were measured in presence of D-luciferin (1 mM).
(In general: Changes in cAMP serve as a functional read-out for many G protein-coupled receptors.)

In another assay the target is T3, GPR103 (Homo sapiens, UniProt Q96P65).
T3 construct: expressed in transfected cells; host or cells: CHO cells (gift from M. Parmentier, IRIBHM, Brussels), membranes
T3 sequence (Q96P65 1-431): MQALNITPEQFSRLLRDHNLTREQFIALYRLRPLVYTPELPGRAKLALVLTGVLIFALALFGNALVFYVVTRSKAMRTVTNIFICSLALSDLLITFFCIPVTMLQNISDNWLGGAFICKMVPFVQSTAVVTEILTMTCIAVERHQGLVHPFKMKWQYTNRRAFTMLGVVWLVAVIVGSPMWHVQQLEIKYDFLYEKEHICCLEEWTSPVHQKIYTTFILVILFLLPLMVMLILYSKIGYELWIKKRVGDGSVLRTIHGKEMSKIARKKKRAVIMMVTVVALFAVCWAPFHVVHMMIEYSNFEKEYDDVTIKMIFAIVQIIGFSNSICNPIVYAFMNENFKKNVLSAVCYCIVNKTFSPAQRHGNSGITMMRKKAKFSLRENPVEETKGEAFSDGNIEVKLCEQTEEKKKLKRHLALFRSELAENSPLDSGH
Briefly: Radioligand competition binding with [125I]-43RFa.

In assay [3] the test system is C57BL/6N mice. Briefly: Tail immersion test after acute sc. administration. It is filed as in vivo. As to the method: Animal experiments were performed on adult male C57BL/6N male mice (25-30 g weight; Janvier labs, France). Animals were housed in groups of three to five per cage and kept under a 12 h/12 h light/dark cycle at 21±1° C. with ad libitum access to food and water. Experiments were performed during the light-on phase of the cycle. Mice were habituated to the testing room and equipment before starting behavioral experiments. Control and treated group assignment as well as pain response measurements were performed in a blinded manner. Every animal was used only once. 1.11. Drug administration All drugs were dissolved in physiological saline (0.9%) and administered subcutaneously (sc.) at 10 mL/kg (volume/body weight). […] Assessment of thermal nociception The nociceptive sensitivity to thermal stimulation was determined in mice using the warm-water tail immersion tests as previously described [12; 49]. In the tail immersion test, C57BN/6N mice were restrained in a grid pocket and their tail was immersed in a thermostated water bath. […] For analgesic tolerance evaluation, nociceptive latencies were measured on day 1 and 8 according to the acute effect protocol. For the assessment of hyperalgesia, basal nociceptive latencies were measured every day, 30 min before drug or saline injection. Responses are expressed as latency times (in sec) of tail withdrawal from the hot water.

The subject of assay [4] is C57BL/6N mice. Description: CFA-induced inflammatory pain model. It is filed as in vivo. The following applies: for CFA-induced thermal hypersensitivity (basal threshold): daily sc., measured before injection. As to the method:
Tail inflammation in C57BL/6N mice was induced by injecting subcutaneously 20 μl of a Complete Freund's Adjuvant (CFA) solution or saline (control mice) 3 cm from the tip of the tail. Twenty-four hours after CFA injection (day 1), inflammation was confirmed by measuring thermal and mechanical hyperalgesia. Mice were then treated sc. daily for 7 days (from day 1 to day 7) with the test compounds or saline (control). Nociceptive threshold to heat stimulation was measured by tail immersion test (47.5±0.5° C.) and tail pressure test each hour for 5 h after the first drug administration in order to determine the peak of the anti-hyperalgesic response. During the following days, basal nociceptive thresholds were evaluated before injection and 2 h after drug injection. Antinociceptive response was calculated as percent of Maximum Possible Effect (% MPE) according to the formula=[(test latency−CFA/saline mice latency)/(cut-off time−CFA/saline mice latency)]×100. In order to limit behavioral sensitization, thermal nociception was evaluated on days 1-2-4-6 and mechanical nociception on days 1-3-5-7.

For assay [5], the target named is T4, human MOPr (Homo sapiens, UniProt P35372). Description: Radioligand competition binding with [3H]-diprenorphine. Set-up: expressed in transfected cells; HEK293-Glo20F cells (cAMP).
T4 sequence (P35372 whole entry): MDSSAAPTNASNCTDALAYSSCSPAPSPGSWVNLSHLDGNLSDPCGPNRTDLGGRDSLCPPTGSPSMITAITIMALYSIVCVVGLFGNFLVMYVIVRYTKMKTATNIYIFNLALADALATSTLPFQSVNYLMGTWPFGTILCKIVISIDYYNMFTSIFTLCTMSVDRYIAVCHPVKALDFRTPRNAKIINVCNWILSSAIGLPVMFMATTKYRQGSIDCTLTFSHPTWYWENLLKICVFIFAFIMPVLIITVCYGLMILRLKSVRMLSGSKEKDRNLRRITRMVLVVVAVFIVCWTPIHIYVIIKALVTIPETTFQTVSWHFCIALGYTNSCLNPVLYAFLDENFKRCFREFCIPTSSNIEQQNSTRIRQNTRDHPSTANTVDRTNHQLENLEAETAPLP
For assay [6], the target named is T4, human MOPr. Description: BRET1 β-arrestin-2 recruitment assay.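 On Emax: Emax relative to maximal DAMGO-induced BRET as 100%.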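 On MOPr (β-arrestin-2) Emax: Emax relative to maximal DAMGO-induced BRET as 100%.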 The following applies: for Emax: read-out: MOPr (β-arrestin-2) Emax. It is filed as cell-based. Also on record: expressed in transfected cells; host or cells: HEK293 cells stably expressing eYFP-β-arrestin-2, transiently transfected with the Rluc8-MOP plasmid. An outline of the steps: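 HEK293 cells stably expressing eYFP-β-arrestin-2 were transfected two days before with Rluc8-tagged MOP receptor. BRET was read at 37 °C with 5 μM coelenterazine H, 5 min after agonist addition.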
On the technique in general: Bioluminescence resonance energy transfer reports proximity on the nanometre scale.

A further assay deals with human NPFF1R (Homo sapiens, UniProt Q9GZQ6). Description: Radioligand competition binding with [125I]-1-DMe-NPFF. Set-up: expressed in transfected cells; HEK293-Glo20F cells (cAMP).
human NPFF1R, sequence (Q9GZQ6 whole entry): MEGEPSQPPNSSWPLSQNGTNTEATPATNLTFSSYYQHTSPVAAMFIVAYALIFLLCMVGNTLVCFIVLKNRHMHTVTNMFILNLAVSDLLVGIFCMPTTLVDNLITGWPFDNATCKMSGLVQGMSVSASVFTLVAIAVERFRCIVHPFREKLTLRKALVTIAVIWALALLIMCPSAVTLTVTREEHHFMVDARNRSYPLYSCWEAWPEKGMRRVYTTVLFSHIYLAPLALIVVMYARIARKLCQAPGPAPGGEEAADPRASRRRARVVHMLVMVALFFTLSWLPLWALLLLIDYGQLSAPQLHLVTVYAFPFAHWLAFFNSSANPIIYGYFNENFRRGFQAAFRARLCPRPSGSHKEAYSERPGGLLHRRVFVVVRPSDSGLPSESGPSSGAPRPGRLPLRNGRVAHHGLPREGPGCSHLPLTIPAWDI
The mark [7] stands for this setting: Table 3a, read-out: MOPr (β-arrestin-2) EC50.
[8] abbreviates: [125I]-43RFa, read-out: Ki ± SEM GPR103.

Like-named read-outs stand apart in the source and are kept apart here. Residues, ends and D or L forms follow the SMILES beside them.

T2 sequence (P41146 whole entry): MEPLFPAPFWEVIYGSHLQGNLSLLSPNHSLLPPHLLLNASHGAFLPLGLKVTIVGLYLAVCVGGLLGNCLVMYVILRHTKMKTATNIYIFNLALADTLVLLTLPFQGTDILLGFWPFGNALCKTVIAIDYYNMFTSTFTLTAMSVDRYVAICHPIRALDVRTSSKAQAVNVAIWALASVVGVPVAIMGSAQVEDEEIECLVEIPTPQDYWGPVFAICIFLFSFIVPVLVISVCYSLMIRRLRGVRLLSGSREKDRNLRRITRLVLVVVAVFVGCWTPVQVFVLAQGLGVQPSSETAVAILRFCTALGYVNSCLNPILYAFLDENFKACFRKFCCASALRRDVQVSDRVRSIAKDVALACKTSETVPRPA
T1 sequence (P41145 whole entry): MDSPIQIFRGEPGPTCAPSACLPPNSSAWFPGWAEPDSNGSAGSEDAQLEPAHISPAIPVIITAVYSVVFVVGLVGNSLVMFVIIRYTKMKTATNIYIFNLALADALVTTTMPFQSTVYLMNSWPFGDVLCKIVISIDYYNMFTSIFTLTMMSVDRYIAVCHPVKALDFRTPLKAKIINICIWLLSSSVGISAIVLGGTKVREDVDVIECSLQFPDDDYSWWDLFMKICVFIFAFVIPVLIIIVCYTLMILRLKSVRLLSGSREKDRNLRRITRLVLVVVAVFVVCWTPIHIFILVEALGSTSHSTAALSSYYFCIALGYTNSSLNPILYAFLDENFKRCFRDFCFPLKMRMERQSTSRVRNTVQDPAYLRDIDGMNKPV

Turning to `Cc1cc(O)cc(C)c1C[C@H](N)C(=O)N[C@H](CCCNC(=N)N)C(=O)N[C@H]1Cc2ccccc2CN(CCC(=O)N[C@@H](CCCNC(=N)N)C(=O)N[C@@H](Cc2ccccc2)C(N)=O)C1=O` [KGFF03, H-Dmt-D-Arg-Aba-β-Ala-Arg-Phe-NH2] (HELM PEPTIDE1{[Cc1cc(O)cc(C)c1C[C@H](N)C(=O)[*:2]].[dR].[O=C1[C@@H](N[*:1])Cc2ccccc2CN1CCC(=O)[*:2]].R.F.[am]}$$$$V2.0), the Ki (as a rule, a measure of affinity in units of concentration, obtained from inhibition or displacement) at human KOPr was 108 ± 28 nM; at human NOPr [1] it was 289 ± 3 nM; on GPR103 it was > 10000 nM; on human MOPr [5], 0.24 ± 0.03 nM. The maximum response (Emax) (in general, the maximal effect, on the per cent scale that the assay sets) at human NOPr [2] came out at 15 ± 2%; on human MOPr [6], 41 ± 11%. In addition, on human NOPr [2], the Kb was 5010 nM. Further, the “potency in inducing antinociception compared to KGOP01” value with C57BL/6N mice [3] was “equipotent”. In addition, the “CFA-induced thermal hypersensitivity (basal threshold)” value (from here on “CFA-induced thermal hypersensitivity”) in the assay on C57BL/6N mice [4] is listed as “not the case”. The EC50 (commonly the concentration giving half of the maximal effect) on human MOPr [6] (setting [7]) came out at 33.9 ± 8.8 nM. The β-arrestin-2 recruitment result on human MOPr [6] (in words) is reported as “partial agonism”.

In the case of `Cc1cc(O)cc(C)c1C[C@H](N)C(=O)N[C@H](CCCNC(=N)N)C(=O)N[C@H]1Cc2ccccc2CN(CCC(=O)N[C@@H](CCCN2CCC(Cc3ccccc3)CC2)C(=O)N[C@@H](Cc2ccccc2)C(N)=O)C1=O` [KGFF09, H-Dmt-D-Arg-Aba-β-Ala-Bpa-Phe-NH2], the Ki stood at 209 ± 2 nM at human NOPr [1], 1200 nM at GPR103 (setting [8]) and 2.43 ± 0.18 nM at human MOPr [5]. Besides, the concentration for a half-maximal effect (EC50) on human NOPr [2] is > 10000 nM; on human MOPr [6] (setting [7]), 56.4 ± 26.5 nM. The Emax at human NOPr [2] turned out to be 7 ± 3%; at human MOPr [6], 42 ± 2%. For the same compound, the Kb at human NOPr [2] (read-out: pA2, antagonist activity at the NOPr (converted)) was 1150 nM. In addition, in the assay with C57BL/6N mice [3], the “potency in inducing antinociception compared to KGOP01” value is given as 4.5 fold less potent. Also, in the assay with C57BL/6N mice [4], the “CFA-induced thermal hypersensitivity” value is given as “totally reversed after the third injection”. In addition, the “analgesic tolerance after 7 days of chronic administration” value with C57BL/6N mice [4] (in words) was “significantly less tolerance”. The β-arrestin-2 recruitment entry at human MOPr [6] (in words) is reported as “partial agonism”.

With `Cc1cc(O)cc(C)c1C[C@H](N)C(=O)N[C@H](CCCNC(=N)N)C(=O)N[C@H]1Cc2ccccc2CN(CCC(N)=O)C1=O` [KGOP01, reference compound], the Ki was 37.3 ± 9.6 nM at human KOPr; > 10000 nM at human NOPr [1]; > 10000 nM on GPR103 (setting [8]); 0.12 ± 0.02 nM at human MOPr [5]; 4600 nM on human NPFF1R. Also, in the assay with C57BL/6N mice [4], the “CFA-induced thermal hypersensitivity” value is “not the case”. This compound registered an EC50 at human MOPr [6] of 1.6 ± 0.1 nM. At human MOPr [6], the β-arrestin-2 recruitment result is reported as “full response”. Also, on human MOPr [6], the Emax turned out to be 103 ± 9%.
